According to patent publication US10455849B2, “Method for the preparation of a protein peptide, a protein peptide and use thereof” (INFINITUS (CHINA) COMPANY LTD., priority 2015, dated 2019):
Marks after values point to notes of the source that are not given here.

Assays:
[1] = test system: rats having hyperuricemia induced by potassium oxonate; test: Serum creatinine content of rats having hyperuricemia induced by potassium oxonate (picric acid method); format: in vivo, rat; settings: administration for 30 d, extracts 200 mg·kg^−1, allopurinol 50 mg·kg^−1, intragastric, x ± s
From the text: (§1) 180 SD rats (SPF grade, male, 200±20 (g)) were provided by Laboratory Animals Centre, Guangzhou University of Chinese Medicine (License Number: SCXK(Yue)2013-0020). Reagents: allopurinol tablets (Guangdong P.D. Pharmaceutical Co., Ltd., Production batch No. 20130302); potassium oxonate (Shandong Zhongke Taidou Chemical Co., Ltd., Batch No. 120901); sodium carboxymethyl cellulose (Shanghai Celluloid Factory, Product Standard No. GB2760); uric acid assay kit (NanJing Jiancheng Bioengineering Institute, Production batch No. 20130529).
(§2) Animal grouping and modeling: 165 normal healthy SD male rats were obtained and randomly divided into normal control group (15 rats) and model group (150 rats). […] Those rats having a uric acid content of greater than 110 μmol·L^−1 were determined to be successful models. […] On 10th and 20th day after treatment with the above-described peptide samples, 50 min after the last administration, the rats were anaesthetized with 3% pentobarbitol sodium (i.p., 30 mg·kg^−1), and the blood (0.5 ml) was collected from conjunctiva and the serum uric acid content was determined. On 30th day after treatment with antigout peptides, the rats were anaesthetized with 3% pentobarbitol sodium, and 5 ml of blood was collected from coeliac artery and the content of serum creatinine and urea nitrogen were determined at the same time in addition to the serum uric acid content. […]

[2] = test system: rats having hyperuricemia induced by potassium oxonate; test: Serum uric acid content of rats having hyperuricemia induced by potassium oxonate (tungstic acid method); format: in vivo, rat; settings: allopurinol group 50 mg·kg^−1; p<0.01; day not given
From the text: as §1, §2

Question: How did the “Creatinine (μmol/L)” value [1] turn out when `Oc1ncnc2[nH]ncc12` [Allopurinol, allopurinol] was run?
Answer: 52.9 ± 10.8^b μmol/L

Question: And the “Effect on serum uric acid content versus model group (in words)” value [2]?
Answer: very significant effect in the reduction of the serum uric acid
